Values quoted from earlier work in patent US20250333406A1, “SULFONYL CYCLIC DERIVATIVES, AND COMPOSITIONS AND METHODS THEREOF” (Lysoway Therapeutics, Inc., priority 2023, published 2025).

Experiments:
[1] = target: T1, ML1-4A (Homo sapiens, UniProt Q9GZU1, L15A/L16A); details: HEK293 cells stably or transiently expressing ML1-4A; cited from earlier work
T1 construct: host or cells: HEK293 (stably or transiently transfected)

[2] = tested on: TRPMLs; details: cited from earlier work
[3] = tested on: TRPML1; details: cited from earlier work
[4] = target: T2, TRPML2 (Homo sapiens, UniProt Q8IZK6); details: cited from earlier work
T2 sequence (Q8IZK6 1-566): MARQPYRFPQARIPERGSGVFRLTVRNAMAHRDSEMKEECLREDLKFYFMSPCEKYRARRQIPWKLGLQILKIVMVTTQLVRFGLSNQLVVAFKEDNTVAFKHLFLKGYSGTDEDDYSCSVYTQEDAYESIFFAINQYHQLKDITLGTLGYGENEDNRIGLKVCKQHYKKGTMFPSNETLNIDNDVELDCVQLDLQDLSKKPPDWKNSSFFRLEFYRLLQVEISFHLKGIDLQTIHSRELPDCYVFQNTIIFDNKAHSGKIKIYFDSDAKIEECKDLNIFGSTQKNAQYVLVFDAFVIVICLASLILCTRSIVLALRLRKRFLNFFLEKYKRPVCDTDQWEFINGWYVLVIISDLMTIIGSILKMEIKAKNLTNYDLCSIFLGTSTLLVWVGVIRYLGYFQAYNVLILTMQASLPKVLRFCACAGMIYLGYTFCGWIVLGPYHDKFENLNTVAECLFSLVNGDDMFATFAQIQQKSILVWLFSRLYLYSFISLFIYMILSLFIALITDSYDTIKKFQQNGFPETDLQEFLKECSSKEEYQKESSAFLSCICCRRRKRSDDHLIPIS

[5] = target: T3, TRPML3 (Homo sapiens, UniProt Q8TDD5); details: cited from earlier work
T3 sequence (Q8TDD5 1-553): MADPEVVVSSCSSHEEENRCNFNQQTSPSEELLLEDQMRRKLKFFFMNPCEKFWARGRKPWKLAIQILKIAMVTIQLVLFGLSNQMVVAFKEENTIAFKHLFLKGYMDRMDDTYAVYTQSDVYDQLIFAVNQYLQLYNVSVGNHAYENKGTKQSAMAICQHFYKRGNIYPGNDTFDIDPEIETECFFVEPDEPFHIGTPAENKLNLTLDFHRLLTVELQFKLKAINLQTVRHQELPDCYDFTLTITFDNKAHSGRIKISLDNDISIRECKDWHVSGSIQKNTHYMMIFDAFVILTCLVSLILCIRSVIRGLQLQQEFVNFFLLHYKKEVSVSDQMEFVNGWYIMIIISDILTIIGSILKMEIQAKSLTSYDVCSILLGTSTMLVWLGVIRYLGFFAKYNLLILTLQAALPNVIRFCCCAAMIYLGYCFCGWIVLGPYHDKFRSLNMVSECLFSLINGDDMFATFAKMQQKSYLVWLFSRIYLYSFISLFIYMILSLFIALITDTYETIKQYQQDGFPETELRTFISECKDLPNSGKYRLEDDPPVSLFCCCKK

[6] = target: T4, TRPML-like current (IML-L) (Homo sapiens, UniProt Q9GZU1); details: wild-type (WT; ML1+/+) human fibroblasts; cited from earlier work
T4 construct: endogenous in cells; host or cells: human fibroblasts (WT ML1+/+; ML4 ML1-/- as negative control)
T4 sequence (Q9GZU1 whole entry): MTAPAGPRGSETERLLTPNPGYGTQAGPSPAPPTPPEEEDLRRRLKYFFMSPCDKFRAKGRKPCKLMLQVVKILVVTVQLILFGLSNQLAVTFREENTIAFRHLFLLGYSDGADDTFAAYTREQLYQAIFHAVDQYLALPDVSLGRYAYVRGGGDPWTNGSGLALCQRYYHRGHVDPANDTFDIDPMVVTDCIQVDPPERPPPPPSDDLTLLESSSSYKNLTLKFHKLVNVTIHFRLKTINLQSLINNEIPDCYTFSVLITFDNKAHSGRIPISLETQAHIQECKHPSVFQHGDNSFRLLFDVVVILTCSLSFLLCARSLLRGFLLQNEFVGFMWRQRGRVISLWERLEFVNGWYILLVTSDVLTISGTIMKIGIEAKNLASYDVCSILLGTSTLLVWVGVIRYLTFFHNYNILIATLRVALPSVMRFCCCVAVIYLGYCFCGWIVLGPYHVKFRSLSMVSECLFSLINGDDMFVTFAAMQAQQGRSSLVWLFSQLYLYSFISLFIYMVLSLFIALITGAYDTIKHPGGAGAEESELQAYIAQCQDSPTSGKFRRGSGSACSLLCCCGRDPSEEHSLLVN

[7] = tested on: TRPML-like current (IML-L); details: ML4 (ML1−/−) human fibroblasts; cited from earlier work

T1 sequence (Q9GZU1 with tags, fused parts or gaps L15A/L16A limits assumed): as the sequence (Q9GZU1 whole entry) above, with L15A, L16A, L577A, L578A counted along it

## CC1CC(C)(C)N(C(=O)CN2C(=O)c3ccccc3C2=O)c2ccccc21 (centres unmarked) [ML-SA1]
[1]
  [Ca2+]cyt increases: significant [Ca2+]cyt increases
[2]
  concentration needed to effectively activate TRPMLs: ~10 µM
[3]; ML-SA1 10 μM, PI(3,5)P2 1 μM
  activation of whole-endolysosome IML1 compared with PI(3,5)P2: comparable to the effect of the endogenous TRPML agonist PI(3,5)P2 (1 μM)
[3]
  activation of whole-cell IML1-4A and whole-endolysosome IML1: robustly activated
[4]
  activation of whole-cell ITRPML2: activated
[5]
  activation of whole-cell ITRPML3: activated
[6]
  activation of whole-endolysosome IML-L: activated
[7]
  activation of whole-endolysosome IML-L: not
